Test [1] has as its system NF-kB reporter in Jurkat cells. Kind of test: NF-kB reporter assay in Jurkat cells stimulated with aCD3/aCD28/PMA. In kind it is cell-based. As to conditions: Homo sapiens; Jurkat cells, 1 hr compound pre-incubation, aCD3/aCD28/PMA stimulation 4 hr, One-Glo readout; read-out: NF-kB Reporter Assay IC50. The essentials:
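Luminescence (One-Glo) from the NF-kB reporter yielded IC50 values. Stimulation lasted 4 h at 37° C with aCD3, aCD28 and PMA (final 5, 5 and 0.03 […]), after 1 h compound pre-exposure of 25,000 Jurkat cells per well in serum-free RPMI.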

The target of the next test is Avi-tagged FL MALT-1 (Homo sapiens (Human), UniProt Q9UDY8). As to the kind of experiment: MALT-1 Fluorogenic Peptide Cleavage Assay (MALT1 inhibition assay). In kind it is biochemical. As to conditions: Ac-LRSR-AMC peptide substrate, 30 min pre-incubation, 90 min reaction at room temperature. The essentials:
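Cleavage of Ac-LRSR-AMC, read as fluorescence at 342/441 nm after 90 min at room temperature, with substrate working stocks of 50 μM (Km) or 280 μM (10×Km). Enzyme, Avi-tagged full-length MALT-1 (40 nM stock), was first pre-incubated 30 min with compound in citrate/HEPES pH 6.89 buffer with TCEP, EDTA, CHAPS and 2% DMSO; IC50 fitted from normalised % inhibition.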

Among the data in US20240150321A1, “PYRAZOLYLSULFONAMIDE COMPOUNDS AND THEIR USE IN THERAPY” (HOTSPOT THERAPEUTICS, INC., priority 2022, published 2024) are IC50 values, retold here.

Avi-tagged FL MALT-1, sequence (Q9UDY8 whole entry): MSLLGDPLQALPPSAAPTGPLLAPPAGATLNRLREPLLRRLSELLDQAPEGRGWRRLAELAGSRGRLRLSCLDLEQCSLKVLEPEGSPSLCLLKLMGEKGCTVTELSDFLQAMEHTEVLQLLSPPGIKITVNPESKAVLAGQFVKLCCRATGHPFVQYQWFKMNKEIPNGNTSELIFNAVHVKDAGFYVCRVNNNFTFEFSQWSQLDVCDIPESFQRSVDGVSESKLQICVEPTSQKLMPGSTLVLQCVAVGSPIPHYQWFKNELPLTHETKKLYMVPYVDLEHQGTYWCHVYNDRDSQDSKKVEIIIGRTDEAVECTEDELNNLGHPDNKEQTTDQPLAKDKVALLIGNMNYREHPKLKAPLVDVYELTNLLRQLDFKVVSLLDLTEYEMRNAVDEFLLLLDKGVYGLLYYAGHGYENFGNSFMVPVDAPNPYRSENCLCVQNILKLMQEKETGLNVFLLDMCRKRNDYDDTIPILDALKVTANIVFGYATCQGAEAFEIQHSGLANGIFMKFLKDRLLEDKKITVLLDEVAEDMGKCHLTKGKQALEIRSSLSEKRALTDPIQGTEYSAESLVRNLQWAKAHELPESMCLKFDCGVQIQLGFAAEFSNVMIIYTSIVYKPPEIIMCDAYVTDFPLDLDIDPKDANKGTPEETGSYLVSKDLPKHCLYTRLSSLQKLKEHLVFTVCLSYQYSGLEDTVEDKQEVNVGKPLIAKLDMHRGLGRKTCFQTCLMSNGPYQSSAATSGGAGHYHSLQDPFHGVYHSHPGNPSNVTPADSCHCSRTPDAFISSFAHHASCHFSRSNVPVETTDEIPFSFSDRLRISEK

In the case of `[2H]C([2H])([2H])n1ncc2cnc(OC)c(NS(=O)(=O)c3cnn(-c4cc(C(C)(F)F)ccn4)c3)c21` [Compound I-411, 1-(4-(1,1-Difluoroethyl)Pyridin-2-yl)-N-(6-Methoxy-1-(Methyl-D3)-1H-Pyrazolo[4,3-C]Pyridin-7-yl)-1H-Pyrazole-4-Sulfonamide], the IC50 – broadly, the concentration needed to halve the response being measured – in test [1] was less than 400 nM; against Avi-tagged FL MALT-1, not above 400 nM.

`COc1ccc2cnn(C)c2c1NS(=O)(=O)c1cnn(-c2cc(N3CC(C)(OC)C3)ccn2)c1` [Compound I-453]: the half-inhibitory concentration (IC50) was 400 to 1000 nM in test [1] and more than 2500 nM at Avi-tagged FL MALT-1.

`Cn1ncc2cccc(NS(=O)(=O)c3cnn(-c4cnc5n4CCOC5)c3)c21` [Compound I-473, 1-(5,6-dihydro-8H-imidazo[2,1-c][1,4]oxazin-3-yl)-N-(1-methyl-1H-indazol-7-yl)-1H-pyrazole-4-sulfonamide]: the 50% inhibitory concentration (IC50) (in test [1]; against Avi-tagged FL MALT-1) was more than 2500 nM throughout.

With `Cn1ncc2ccc(Cl)c(NS(=O)(=O)c3cnn(-c4cc(C(F)(F)F)ccn4)c3)c21` [Compound I-85, N-(6-chloro-1-Methyl-1H-Indazol-7-yl)-1-(4-(Trifluoromethyl)Pyridin-2-yl)-1H-Pyrazole-4-Sulfonamide], the IC50 in test [1] is less than 400 nM; against Avi-tagged FL MALT-1, not above 400 nM.

`Cn1ncc2cccc(NS(=O)(=O)c3cnn(-c4cc([C@]5(O)C[C@H](C)C5)ccn4)c3)c21` [Compound I-288, 1-(4-((1r,3r)-1-hydroxy-3-methyl-cyclobutyl)pyridin-2-yl)-N-(1-methyl-1H-indazol-7-yl)-1H-pyrazole-4-sulfonamide]: the IC50 in test [1] was less than 400 nM; against Avi-tagged FL MALT-1, more than 2500 nM.

For `COC1(c2ccnc(-n3cc(S(=O)(=O)Nc4cccc5[nH]nc(C)c45)cn3)c2)COC1` [Compound I-244, 1-(4-(3-methoxyoxetan-3-yl)pyridin-2-yl)-N-(3-methyl-1H-indazol-4-yl)-1H-pyrazole-4-sulfonamide], the IC50 in test [1] was less than 400 nM; against Avi-tagged FL MALT-1, more than 2500 nM.

Turning to `CCc1ccc2[nH]nc(C)c2c1N(C)S(=O)(=O)c1cnn(-c2ccnc(C(F)(F)F)c2)c1` [Compound I-62, N-(5-Ethyl-3-Methyl-1H-Indazol-4-yl)-N-Methyl-1-(2-(Trifluoromethyl)Pyridin-4-yl)-1H-Pyrazole-4-Sulfonamide], the figures for the IC50 (in test [1]; against Avi-tagged FL MALT-1) were 400 to 1000 nM and not above 400 nM, respectively.

Turning to `Cn1ncc2cccc(NS(=O)(=O)c3cnn(-c4cc(C5(C#N)CCCC5)ccn4)c3)c21` [Compound I-448, 1-(4-(1-cyanocyclopentyl)pyridin-2-yl)-N-(1-methyl-1H-indazol-7-yl)-1H-pyrazole-4-sulfonamide], the concentration for half-maximal inhibition (IC50) is less than 400 nM in test [1] and more than 2500 nM against Avi-tagged FL MALT-1.

Regarding `CCc1ccc2cnn(C)c2c1NS(=O)(=O)c1cn(-c2ccnc(C(F)(F)F)c2)nc1C` [Compound I-29, N-(6-Ethyl-1-Methyl-1H-Indazol-7-yl)-3-Methyl-1-(2-(Trifluoromethyl)Pyridin-4-yl)-1H-Pyrazole-4-Sulfonamide], the IC50 in test [1] was 400 to 1000 nM; at Avi-tagged FL MALT-1 it was not above 400 nM.

Regarding `COc1ncc2cnn(C)c2c1NS(=O)(=O)c1cnn(-c2cc(N3CC[C@@H](F)C3)ccn2)c1` [Compound I-427], the half-inhibitory concentration (IC50) was 400 to 1000 nM in test [1] and more than 2500 nM against Avi-tagged FL MALT-1.

With `COc1ncc2cnn(C)c2c1NS(=O)(=O)c1cnn(-c2cc(N3CC(C)C3)ccn2)c1` [Compound I-397], the figures for the half-maximal inhibitory concentration (IC50) (in test [1]; against Avi-tagged FL MALT-1) were less than 400 nM and 1000 to 2500 nM, respectively.

For `CC[C@@H](OC)c1ccnc(-n2cc(S(=O)(=O)Nc3cccc4cnn(C)c34)cn2)c1` [Compound I-298], the IC50 was less than 400 nM in test [1] and more than 2500 nM against Avi-tagged FL MALT-1.

Take `COc1ncc2cnn(C)c2c1NS(=O)(=O)c1cnn(-c2cc(N3CCC(C)CC3)ccn2)c1` [Compound I-407]: the IC50 in test [1] was less than 400 nM; on Avi-tagged FL MALT-1, more than 2500 nM.

As to `C=CC(F)c1ccnc(-n2cc(S(=O)(=O)Nc3c(OC)ccc4cnn(C)c34)cn2)c1` (centres unmarked) [Compound I-343, 1-(4-(1-fluoroallyl)pyridin-2-yl)-N-(6-methoxy-1-methyl-1H-indazol-7-yl)-1H-pyrazole-4-sulfonamide], the IC50 is 1000 to 2500 nM in test [1] and not above 400 nM against Avi-tagged FL MALT-1.

As for `Cn1ncc2cccc(NS(=O)(=O)c3cnn(-c4cc(N5CC[C@@H](F)C5)ccn4)c3)c21` [Compound I-430, 1-{4-[(3R)-3-fluoropyrrolidin-1-yl]pyridin-2-yl}-N-(1-methylindazol-7-yl)pyrazole-4-sulfonamide], the IC50 in test [1] was less than 400 nM; on Avi-tagged FL MALT-1, more than 2500 nM.

As for `COc1ncc2cnn(C)c2c1NS(=O)(=O)c1cnn(-c2cc(N3CCOCC3)ccn2)c1` [Compound I-416], the IC50 was 1000 to 2500 nM in test [1] and more than 2500 nM against Avi-tagged FL MALT-1.

Turning to `COc1ccc2cnn(C)c2c1NS(=O)(=O)c1cnn(-c2cc(N3CC(C)(C#N)C3)ccn2)c1` [Compound I-461], the figures for the half-inhibitory concentration (IC50) (in test [1]; against Avi-tagged FL MALT-1) were 400 to 1000 nM and more than 2500 nM, respectively.

With `COc1ccc2cnn(C)c2c1NS(=O)(=O)c1cnn(-c2cc(N3CC(C#N)C3)ccn2)c1` [Compound I-454], the IC50 in test [1] is 400 to 1000 nM; against Avi-tagged FL MALT-1 it was more than 2500 nM.

On to `CCc1ccc2cnn(C)c2c1NS(=O)(=O)c1cnn(-c2cc(OC(F)(F)F)ccn2)c1` [Compound I-43, N-(6-Ethyl-1-Methyl-1H-Indazol-7-yl)-1-(4-(Trifluoromethoxy) Pyridin-2-yl)-1H-Pyrazole-4-Sulfonamide], for which the half-maximal inhibitory concentration (IC50) (in test [1]; against Avi-tagged FL MALT-1) was more than 2500 nM throughout.

Turning to `COc1ncc2cnn(C)c2c1NS(=O)(=O)c1cnn(-c2cc(N3CC[C@H](F)C3)ccn2)c1` [Compound I-426], the IC50 in test [1] is less than 400 nM; at Avi-tagged FL MALT-1, more than 2500 nM.

For the molecule `COc1ccc2cnn(C)c2c1NS(=O)(=O)c1cnn(-c2cc(C(F)(F)F)nn2C)c1` [Compound I-242], the half-maximal inhibitory concentration (IC50) in test [1] was 1000 to 2500 nM; on Avi-tagged FL MALT-1, more than 2500 nM.

On to `CCc1ccc2cnn(C)c2c1NS(=O)(=O)c1cnn(-c2ccnc(N(C)C)c2)c1` [Compound I-41, 1-(2-(Dimethylamino)Pyridin-4-yl)-N-(6-ethyl-1-Methyl-1H-Indazol-7-yl)-1H-Pyrazole-4-Sulfonamide], for which the figures for the 50% inhibitory concentration (IC50) (in test [1]; at Avi-tagged FL MALT-1) were less than 400 nM and not above 400 nM, respectively.

Consider `COc1ncc2cnn(C)c2c1NS(=O)(=O)c1cnn(-c2cc(N3CC4(CC4)C3)ccn2)c1` [Compound I-386, 1-(4-(5-azaspiro[2.3]hexan-5-yl)pyridin-2-yl)-N-(6-methoxy-1-methyl-1H-pyrazolo[4,3-c]pyridin-7-yl)-1H-pyrazole-4-sulfonamide], for which the IC50 was less than 400 nM in test [1] and more than 2500 nM at Avi-tagged FL MALT-1.

Consider `Cn1ncc2cccc(NS(=O)(=O)c3cnn(-c4cc(C(C)(C)F)ccn4)c3)c21` [Compound I-113, 1-(4-(2-fluoropropan-2-yl)pyridin-2-yl)-N-(1-methyl-1H-indazol-7-yl)-1H-pyrazole-4-sulfonamide], for which the concentration for half-maximal inhibition (IC50) in test [1] is less than 400 nM; against Avi-tagged FL MALT-1, more than 2500 nM.

On to `COC(C)c1ccnc(-n2cc(S(=O)(=O)Nc3cccc4cnn(C)c34)cn2)c1` (centres unmarked) [Compound I-116, 1-(4-(1-methoxyethyl)pyridin-2-yl)-N-(1-methyl-1H-indazol-7-yl)-1H-pyrazole-4-sulfonamide], for which the 50% inhibitory concentration (IC50) was less than 400 nM in test [1] and more than 2500 nM on Avi-tagged FL MALT-1.

Consider `C[C@H]1CN(C)C(=O)N1c1ccnc(-n2cc(S(=O)(=O)Nc3cccc4cnn(C)c34)cn2)c1` [Compound I-349], for which the IC50 in test [1] is less than 400 nM; on Avi-tagged FL MALT-1, more than 2500 nM.

For `CC(=O)N1CC(c2ccnc(-n3cc(S(=O)(=O)Nc4cccc5cnn(C)c45)cn3)c2)C1` [Compound I-326], the concentration for half-maximal inhibition (IC50) (in test [1]; against Avi-tagged FL MALT-1) was more than 2500 nM each time.

As for `COc1ccc2cnn(C)c2c1NS(=O)(=O)c1cnn(-c2cc(C3COC3)ccn2)c1` [Compound I-262, N-(6-methoxy-1-methyl-1H-indazol-7-yl)-1-(4-(oxetan-3-yl)pyridin-2-yl)-1H-pyrazole-4-sulfonamide], the IC50 is less than 400 nM in test [1] and 400 to 1000 nM on Avi-tagged FL MALT-1.

`COc1ncc2cnn(C)c2c1NS(=O)(=O)c1cnn(-c2cc(N3CC(C)(C)C3)ccn2)c1` [Compound I-385]: the values for the half-inhibitory concentration (IC50) (in test [1]; against Avi-tagged FL MALT-1) were less than 400 nM and more than 2500 nM, respectively.

With `C[C@H](O)c1ccnc(-n2cc(S(=O)(=O)Nc3cccc4cnn(C)c34)cn2)c1` [Compound I-270], the IC50 in test [1] was less than 400 nM; against Avi-tagged FL MALT-1, more than 2500 nM.

`COc1ccc2cnn(C)c2c1NS(=O)(=O)c1cnn(-c2cc(C3(OC)CC(C)(C)C3)ccn2)c1` [Compound I-480]: the figures for the concentration for half-maximal inhibition (IC50) (in test [1]; against Avi-tagged FL MALT-1) were less than 400 nM and more than 2500 nM, respectively.

In the case of `Cc1n[nH]c2cccc(NS(=O)(=O)c3cnn(-c4ccnc(C(F)(F)F)c4)c3)c12` [Compound I-51, N-(3-Methyl-1H-Indazol-4-yl)-1-(2-(Trifluoromethyl)Pyridin-4-yl)-1H-Pyrazole-4-Sulfonamide], the IC50 (in test [1]; at Avi-tagged FL MALT-1) was more than 2500 nM in each case.

For the molecule `CCc1ccc2cnn(C)c2c1NS(=O)(=O)c1cnn(-c2cc(C(F)(F)F)ncn2)c1` [Compound I-19, N-(6-Ethyl-1-Methyl-1H-Indazol-7-yl)-1-(6-(Trifluoromethyl) Pyrimidin-4-yl)-1H-Pyrazole-4-Sulfonamide], the IC50 was less than 400 nM in test [1] and not above 400 nM on Avi-tagged FL MALT-1.

For the molecule `COc1ccc2cnn(C)c2c1NS(=O)(=O)c1cnn(-c2cc([C@@H](C)O)ccn2)c1` [Compound I-340, (R)-1-(4-(1-hydroxyethyl)pyridin-2-yl)-N-(6-methoxy-1-methyl-1H-indazol-7-yl)-1H-pyrazole-4-sulfonamide], the IC50 in test [1] is less than 400 nM; against Avi-tagged FL MALT-1, not above 400 nM.
